Experimental data from PubChem BioAssay AID256 (DTP/NCI, 2004).
“And” between values parts separate entries of the source, which are not always exact repeats. Equal values may be shown once. Toxic doses and inconclusive results are not listed. Rule for the calls: active = survival T/C of 150% or more; inactive = T/C below 125% in these data.

Test system: CD2F1 mice, L1210 leukemia ip, survival T/C
Test: NCI In Vivo Anticancer Drug Screen. Data for tumor model L1210 Leukemia (intraperitoneal) in CD2F1 (CDF1) mice
Settings: higher = longer survival
In short: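 Mice carrying a transplanted tumor received test compound or vehicle alone. The value is the measurement in the treated group divided by that in the vehicle-treated control group.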

[1] = endpoint: mean survival time, dose: 25.0 mg/kg/injection, schedule: Q04DX003 (ip), vehicle: saline
[2] = endpoint: mean survival time, dose: 12.5 mg/kg/injection, schedule: Q04DX003 (ip), vehicle: saline
[3] = endpoint: mean survival time, dose: 25.0 mg/kg/injection, schedule: Q04DX003 (ip), vehicle: saline with Tween-80
[4] = endpoint: mean survival time, dose: 100.0 mg/kg/injection, schedule: Q04DX003 (ip), vehicle: saline with Tween-80
[5] = endpoint: mean survival time, dose: 200.0 mg/kg/injection, schedule: Q04DX003 (ip), vehicle: saline with Tween-80
[6] = endpoint: mean survival time, dose: 400.0 mg/kg/injection, schedule: Q04DX003 (ip), vehicle: saline with Tween-80

Measured: T/C

O=S(=O)(O)O.[N-]=C(N)/N=C(\[NH-])N.[N-]=C(N)/N=C(\[NH-])N.[N-]=C(N)NC(=[N-])N.[Rh+3]
inactive: [1] 96 % of control | endpoint: mean survival time, dose: 100.0 mg/kg/injection, schedule: Q04DX003 (ip), vehicle: saline 100 % of control

Cc1cc2ccc(Br)cc2[nH]1
inactive: endpoint: mean survival time, dose: 100.0 mg/kg/injection, schedule: Q01DX001 (ip), vehicle: other 104 % of control | endpoint: mean survival time, dose: 200.0 mg/kg/injection, schedule: Q01DX001 (ip), vehicle: other 101 % of control | endpoint: mean survival time, dose: 400.0 mg/kg/injection, schedule: Q01DX001 (ip), vehicle: other 98 % of control

Brc1ccc(C[N+]23CCN(CC2)CC3)cc1
inactive: [2] 98 % of control and 111 % of control | [1] 93 % of control and 100 % of control | endpoint: mean survival time, dose: 50.0 mg/kg/injection, schedule: Q04DX003 (ip), vehicle: saline 95 % of control and 103 % of control

COc1cc(O)c2c(O)c3c(c4c2c1[C@]1(C4)C(C)=CCCC1(C)C)[C@H](O)[C@@]1(O)CC(=O)C(C(N)=O)=C(O)[C@@]1(O)C3=O
inactive: endpoint: mean survival time, dose: 1.56 mg/kg/injection, schedule: Q01DX009 (ip), vehicle: saline with Tween-80 96 % of control and 101 % of control | endpoint: mean survival time, dose: 3.13 mg/kg/injection, schedule: Q01DX009 (ip), vehicle: saline with Tween-80 98 % of control | endpoint: mean survival time, dose: 6.25 mg/kg/injection, schedule: Q01DX009 (ip), vehicle: saline with Tween-80 104 % of control | endpoint: mean survival time, dose: 12.5 mg/kg/injection, schedule: Q01DX009 (ip), vehicle: saline with Tween-80 114 % of control | endpoint: mean survival time, dose: 16.5 mg/kg/injection, schedule: Q04DX003 (ip), vehicle: saline with Tween-80 98 % of control | endpoint: mean survival time, dose: 25.0 mg/kg/injection, schedule: Q01DX009 (ip), vehicle: saline with Tween-80 119 % of control | [3] 102 % of control | endpoint: mean survival time, dose: 37.5 mg/kg/injection, schedule: Q04DX003 (ip), vehicle: saline with Tween-80 111 % of control | endpoint: mean survival time, dose: 50.0 mg/kg/injection, schedule: Q01DX009 (ip), vehicle: saline with Tween-80 90 % of control

CN(Cc1cnc2nc(N)nc(N)c2n1)c1ccc(C(=O)NC(CCP(=O)(O)O)P(=O)(O)O)cc1 (configuration not stated)
inactive: endpoint: median survival time, dose: 0.38 mg/kg/injection, schedule: Q01DX009 (ip), vehicle: saline 101 % of control | endpoint: median survival time, dose: 0.75 mg/kg/injection, schedule: Q01DX009 (ip), vehicle: saline 101 % of control | endpoint: median survival time, dose: 1.5 mg/kg/injection, schedule: Q01DX009 (ip), vehicle: saline 98 % of control | endpoint: median survival time, dose: 3.0 mg/kg/injection, schedule: Q01DX009 (ip), vehicle: saline 102 % of control | endpoint: median survival time, dose: 6.0 mg/kg/injection, schedule: Q01DX009 (ip), vehicle: saline 102 % of control | endpoint: median survival time, dose: 12.0 mg/kg/injection, schedule: Q01DX009 (ip), vehicle: saline 101 % of control

CC([NH-])CC(C)[NH-].[Cl][Pt+2][Cl] (configuration not stated)
active: endpoint: mean survival time, dose: 6.25 mg/kg/injection, schedule: Q04DX003 (ip), vehicle: saline with Tween-80 162 % of control and 168 % of control
inactive: endpoint: mean survival time, dose: 3.12 mg/kg/injection, schedule: Q04DX003 (ip), vehicle: saline with Tween-80 122 % of control | [3] 92 % of control

CC(C)(C)C1SCC(CO)CS1 (configuration not stated)
inactive: endpoint: mean survival time, dose: 100.0 mg/kg/injection, schedule: Q04DX002 (ip), vehicle: saline with Tween-80 97 % of control | endpoint: mean survival time, dose: 200.0 mg/kg/injection, schedule: Q04DX002 (ip), vehicle: saline with Tween-80 102 % of control | endpoint: mean survival time, dose: 400.0 mg/kg/injection, schedule: Q04DX002 (ip), vehicle: saline with Tween-80 91 % of control

Cc1ccc(-c2cc(-c3ccccc3)n(-c3ccccc3)n2)cc1
inactive: [4] 101 % of control | [5] 100 % of control | [6] 95 % of control

CCOC(=O)C(Br)C(Br)c1ccccc1 (configuration not stated)
inactive: endpoint: mean survival time, dose: 50.0 mg/kg/injection, schedule: Q01DX009 (ip), vehicle: saline 108 % of control | endpoint: mean survival time, dose: 100.0 mg/kg/injection, schedule: Q01DX009 (ip), vehicle: saline 103 % of control | endpoint: mean survival time, dose: 200.0 mg/kg/injection, schedule: Q01DX009 (ip), vehicle: saline 103 % of control

CC1C2CCC(C2)C1C(=O)O (configuration not stated)
inactive: endpoint: mean survival time, dose: 100.0 mg/kg/injection, schedule: Q01DX009 (ip), vehicle: saline with Tween-80 98 % of control | endpoint: mean survival time, dose: 100.0 mg/kg/injection, schedule: Q04DX003 (ip), vehicle: other 94 % of control | endpoint: mean survival time, dose: 200.0 mg/kg/injection, schedule: Q01DX009 (ip), vehicle: saline with Tween-80 94 % of control | endpoint: mean survival time, dose: 200.0 mg/kg/injection, schedule: Q04DX003 (ip), vehicle: other 87 % of control | endpoint: mean survival time, dose: 400.0 mg/kg/injection, schedule: Q01DX009 (ip), vehicle: saline with Tween-80 86 % of control | endpoint: mean survival time, dose: 400.0 mg/kg/injection, schedule: Q04DX003 (ip), vehicle: other 90 % of control

CS(C)=O.O=C([O-])CC(=O)[O-].[NH-]CC(O)CN(Cc1ccccc1)CC(O)CN.[Pt+4] (configuration not stated)
inactive: endpoint: median survival time, dose: 10.0 mg/kg/injection, schedule: Q04DX003 (ip), vehicle: water 107 % of control | endpoint: median survival time, dose: 20.0 mg/kg/injection, schedule: Q04DX003 (ip), vehicle: water 104 % of control | endpoint: median survival time, dose: 40.0 mg/kg/injection, schedule: Q04DX003 (ip), vehicle: water 104 % of control | endpoint: median survival time, dose: 50.0 mg/kg/injection, schedule: Q04DX003 (ip), vehicle: water 100 % of control | endpoint: median survival time, dose: 80.0 mg/kg/injection, schedule: Q04DX003 (ip), vehicle: water 108 % of control | endpoint: median survival time, dose: 100.0 mg/kg/injection, schedule: Q04DX003 (ip), vehicle: water 104 % of control | endpoint: median survival time, dose: 200.0 mg/kg/injection, schedule: Q04DX003 (ip), vehicle: water 117 % of control and 110 % of control | endpoint: median survival time, dose: 400.0 mg/kg/injection, schedule: Q04DX003 (ip), vehicle: water 114 % of control

CNC(=O)n1ncnc1N
inactive: endpoint: mean survival time, dose: 12.5 mg/kg/injection, schedule: Q01DX001 (ip), vehicle: carboxymethylcellulose (CMC) 95 % of control | endpoint: mean survival time, dose: 25.0 mg/kg/injection, schedule: Q01DX001 (ip), vehicle: carboxymethylcellulose (CMC) 100 % of control | endpoint: mean survival time, dose: 50.0 mg/kg/injection, schedule: Q01DX001 (ip), vehicle: carboxymethylcellulose (CMC) 95 % of control | endpoint: mean survival time, dose: 100.0 mg/kg/injection, schedule: Q01DX001 (ip), vehicle: carboxymethylcellulose (CMC) 91 % of control | endpoint: mean survival time, dose: 200.0 mg/kg/injection, schedule: Q01DX001 (ip), vehicle: carboxymethylcellulose (CMC) 93 % of control

COc1cc(C(=O)C(=O)c2cc(OC)c(OC)c(OC)c2)cc(OC)c1OC
inactive: endpoint: mean survival time, dose: 100.0 mg/kg/injection, schedule: Q01DX009 (ip), vehicle: Klucel (hydroxypropylcellulose) (HPC) 101 % of control | endpoint: mean survival time, dose: 200.0 mg/kg/injection, schedule: Q01DX009 (ip), vehicle: Klucel (hydroxypropylcellulose) (HPC) 106 % of control | endpoint: mean survival time, dose: 400.0 mg/kg/injection, schedule: Q01DX009 (ip), vehicle: Klucel (hydroxypropylcellulose) (HPC) 113 % of control

N#C/C(=C\c1cccc(OCc2ccccc2)c1)c1ccc([N+](=O)[O-])cc1
inactive: endpoint: mean survival time, dose: 6.25 mg/kg/injection, schedule: Q04DX003 (ip), vehicle: saline 98 % of control | [2] 98 % of control | [1] 102 % of control

ClC/C(=N\N1CCCCCC1)c1ccccc1
inactive: endpoint: mean survival time, dose: 100.0 mg/kg/injection, schedule: Q01DX001 (ip), vehicle: saline 103 % of control | endpoint: mean survival time, dose: 200.0 mg/kg/injection, schedule: Q01DX001 (ip), vehicle: saline 103 % of control | endpoint: mean survival time, dose: 400.0 mg/kg/injection, schedule: Q01DX001 (ip), vehicle: saline 102 % of control

CC(C)(C)N=C1OC(=O)c2ccccc21
inactive: [4] 101 % of control | [5] 101 % of control | [6] 101 % of control

Cc1ccc(C2(c3ccccc3)c3ccccc3C(=O)N2c2ccccc2)cc1 (configuration not stated)
inactive: [4] 97 % of control | [5] 101 % of control | [6] 103 % of control

CC(C)NCC(O)c1ccc(O)c(O)c1.[Pt].c1ccc([PH+](c2ccccc2)c2ccccc2)cc1.c1ccc([PH+](c2ccccc2)c2ccccc2)cc1
inactive: endpoint: median survival time, dose: 10.0 mg/kg/injection, schedule: Q04DX003 (ip), vehicle: saline with Tween-80 108 % of control | endpoint: median survival time, dose: 20.0 mg/kg/injection, schedule: Q04DX003 (ip), vehicle: saline with Tween-80 105 % of control | endpoint: median survival time, dose: 40.0 mg/kg/injection, schedule: Q04DX003 (ip), vehicle: saline with Tween-80 105 % of control | endpoint: median survival time, dose: 50.0 mg/kg/injection, schedule: Q04DX003 (ip), vehicle: saline with Tween-80 101 % of control | endpoint: median survival time, dose: 80.0 mg/kg/injection, schedule: Q04DX003 (ip), vehicle: saline with Tween-80 102 % of control | endpoint: median survival time, dose: 100.0 mg/kg/injection, schedule: Q04DX003 (ip), vehicle: saline with Tween-80 98 % of control

CC(C)CC(C)NCCO (configuration not stated)
inactive: endpoint: mean survival time, dose: 75.0 mg/kg/injection, schedule: Q01DX001 (ip), vehicle: saline 98 % of control | endpoint: mean survival time, dose: 150.0 mg/kg/injection, schedule: Q01DX001 (ip), vehicle: saline 100 % of control
